“And” between values parts separate entries of the source, which are not always exact repeats. Equal entries are not always repeated.
Test system: absolute ethanol-induced ulcer
Test: absolute ethanol-induced ulcer model (anti-ulcerogenic activity)
Format: in vivo, Wistar rats
Conditions: rats, oral, ranitidine 100 mg/kg, TAE 1000 mg/kg, 1 and 2 50 mg/kg; for score (lesion score): scoring system 0-5; for score (lesion score) / No. of ulcers / ulcer index: n = 6; for No. of ulcers / ulcer index: mean ± SD
Experimental: Evaluation of the anti-ulcerogenic activity was carried out using absolute ethanol-induced ulcer model as described by Muthu et al. Int. J. Pharm. Pharm. Sci. 2013, 5, Suppl1, 269-272.
About 30 Wistar rats were used, they divided into 5 groups each of 6 rats. Group 1 received the vehicle and served as control group, group 2 received ranitidine (100 mg/kg) and served as standard group, groups 3 received the total alcohol extract of the plant under investigation at a dose of 1000 mg/kg. groups 4 and 5 received the isolated compounds 1 and 2 at dose 50 mg/kg respectively.
Rats of all groups were fasted for 24 h then all medications were administered orally. One hour after treatment, the animals received an oral dose of absolute ethanol (1 ml/200 g) and then sacrificed one hour later, by ether inhalation, the stomachs were rapidly removed, opened along their greater curvature and gently rinsed under running tap water.
Number of lesions in the glandular part of the stomach were measured under an illuminated magnifying microscope (10×). Long lesions were counted and their lengths were measured. Petechial lesions were counted, and then each five petechial lesions were taken as 1 mm of ulcer.
The lesion scores: the mucosal lesions were quantified by the scoring system (0-5) 0=no damage, 1=Local edema and inflammation without ulcers; 2=One ulcer without inflammation; 3=one to two ulcers with inflammation & lesion diameter <1 cm; 4=More than two ulcers with lesion diameter 1-2 cm; 5=Sever ulceration with lesion diameter >2 cm.
Ulcer index To calculate the ulcer index (mm), the sum of the total length of long ulcers and petechial lesions in each group of rats was divided by its number. The curative ratio was determined according to the formula: % Protection of control ulcer=Control UI−Test UI/Control UI×100

Structure (SMILES)	score (lesion score)	% protection of control ulcer	No. of ulcers	ulcer index	% protection of control ulcer (listed as ranitidine)
CCCCCCCCCCCCCCCCCCCCCCCC(=O)O [Compound 1, tetracosanoic acid]	1	80%	2 ± 2.74	2.6 ± 3.58 mm	–
CCCCOC(=O)C(O)CCC(=O)O (stereo not shown) [Compound 2, 4-hydroxy-5-n-butoxy-5-oxopentanoic acid]	2	55.5% and 55.3%	3.6± 2.97	5.8 ± 3.42 mm	–
CNC(=C[N+](=O)[O-])NCCSCc1ccc(CN(C)C)o1 [Ranitidine, ranitidine, reference compound]	2.2	46.2%	7.2 ± 0.84	7 ± 1.58 mm	46.2% and 44.6%

— patent US11147848B2, “Extracts and isolated compounds from Cakile arabica for treatment of ulcer” (KING SAUD UNIVERSITY, priority 2013, dated 2021)
